Patent publication US20080051463A1, “ANTHRACENE COMPOUNDS AND THEIR USE FOR TREATING BENIGN AND MALIGNANT TUMOR DISORDERS” (AETERNA ZENTARIS GmbH, priority 2006, published 2008)
Converted amounts (≈) assume the structure as drawn. “And” between values parts separate entries of the source, which are not always exact repeats. Equal entries are not always repeated.

What was measured:
Eg513-437 = biological target: T1, Eg513-437 (Homo sapiens, UniProt P52732); experiment: Inhibition of kinesin Eg5 activity, recombinant Eg513-437; assay type: biochemical; settings: recombinant Eg513-437 (Table 4)
T1 construct: read as Eg5 residues 13-437
T1 sequence (P52732 1-1056): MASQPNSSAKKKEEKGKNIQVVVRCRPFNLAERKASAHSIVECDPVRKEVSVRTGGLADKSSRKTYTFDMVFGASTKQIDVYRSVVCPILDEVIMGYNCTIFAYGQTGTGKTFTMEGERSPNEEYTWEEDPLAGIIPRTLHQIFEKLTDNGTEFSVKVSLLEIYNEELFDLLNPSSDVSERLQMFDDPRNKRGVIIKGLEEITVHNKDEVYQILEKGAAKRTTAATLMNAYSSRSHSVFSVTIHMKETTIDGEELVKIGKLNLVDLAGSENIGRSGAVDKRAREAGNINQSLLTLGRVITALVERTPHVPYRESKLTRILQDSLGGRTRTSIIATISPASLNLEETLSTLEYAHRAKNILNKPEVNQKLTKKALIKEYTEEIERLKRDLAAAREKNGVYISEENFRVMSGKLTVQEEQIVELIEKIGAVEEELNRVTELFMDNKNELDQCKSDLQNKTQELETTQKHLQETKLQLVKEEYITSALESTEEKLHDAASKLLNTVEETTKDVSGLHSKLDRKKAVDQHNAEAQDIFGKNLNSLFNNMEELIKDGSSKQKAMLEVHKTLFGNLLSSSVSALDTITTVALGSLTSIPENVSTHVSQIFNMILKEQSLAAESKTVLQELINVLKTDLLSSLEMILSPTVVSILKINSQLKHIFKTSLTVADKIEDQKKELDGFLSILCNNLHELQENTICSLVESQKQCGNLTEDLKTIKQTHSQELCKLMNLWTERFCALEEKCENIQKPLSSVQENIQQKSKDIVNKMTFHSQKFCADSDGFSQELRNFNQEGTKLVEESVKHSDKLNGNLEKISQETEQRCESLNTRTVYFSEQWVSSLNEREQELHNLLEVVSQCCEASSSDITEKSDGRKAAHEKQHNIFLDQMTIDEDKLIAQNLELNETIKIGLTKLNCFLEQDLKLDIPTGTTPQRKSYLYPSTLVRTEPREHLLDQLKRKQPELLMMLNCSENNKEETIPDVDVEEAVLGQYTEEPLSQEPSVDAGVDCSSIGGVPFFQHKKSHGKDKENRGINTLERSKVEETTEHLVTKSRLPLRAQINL
Text: In an in vitro test, compound 1 was examined for inhibition of Eg5 activity [Kodama, T. et al. J. Biochem. 99: 1465-1472 (1986)].
Here, the recombinant kinesins Eg513-437 (Table 3) and Eg51-406 (Table 4) were used.
Tables 4 and 5 state the EC50 values of Eg5 inhibition for the compound 1 according to the invention.

bovine tubulin = experiment: Inhibition of the polymerization of bovine tubulin (in vitro); assay type: biochemical
Text: In this test, tubulin purified by polymerization and depolymerization cycles is used, which is polymerized by addition of GTP and heating.
Table 1 states the %-inhibition values and Table 2 states the EC50 values of polymerization inhibition of tubulin with 30% associated proteins (MAPs).

[1] = system: RKOp27 human colon carcinoma cells, p27kiP1 induced; experiment: Proliferation test, RKOp27 cell system with induced p27kiP1 expression; assay type: cell-based; settings: RKOp27 with induced expression of p27kiP1, read-out: RKOP27ind EC50
Text: (§1) The antiproliferative activity of the compounds 1, 2, 4, 6, 7, 9, 10, 11, 12 and 13 according to the invention was investigated in a proliferation test performed on established tumor cell lines (D. A. Scuderio et al. Cancer Res. 1988, 48: 4827-4833).
(§2) The test used determines the cellular dehydrogenase activity and makes it possible to determine cell viability and determine cell number indirectly.
(§3) The cell lines used are the human cervical carcinoma cell line KB/HeLa (ATCC CCL17), the ovarian adenocarcinoma cell line SKOV-3 (ATCC HTB77), the human glioblastoma cell line SF-268 (NCI-503138) and the lung carcinoma cell line NCI-H460 (NCI-503473). In addition, an RKOp27 cell system was used for investigating the cell cycle-specific effect of the substance (M. Schmidt et al. Oncogene 2000, 19(20): 2423-9).
RKO is a human colon carcinoma line in which expression of the cell cycle inhibitor p27^kiP1 can be induced using the ecdysone expression system and lead to cell cycle arrest specifically in […].
By contrast, cell cycle-specific substances, such as, for example, tubulin inhibitors, are only cytotoxic when cells are not arrested and the cell cycle is passed through.

[2] = system: ovarian adenocarcinoma cell line SKOV-3; experiment: Proliferation test (cellular dehydrogenase activity), SK-OV-3; assay type: cell-based; settings: Homo sapiens
Text: as §1, §2, §3

[3] = system: human glioblastoma cell line SF-268; experiment: Proliferation test (cellular dehydrogenase activity), SF-268; assay type: cell-based
Text: as §1, §2, §3

SMILES: O=C(C=C1c2ccccc2C(=O)c2ccccc21)c1ccc(O)c(O)c1 [Compound 1, 10-[2-(3,4-dihydroxy-phenyl)-2-oxo-ethylidene]-10H-anthracen-9-one]
- EC50 (Eg513-437): 6.92 µM and 7.24 µM and 5.46 µM and 5.9 µM
- Inhibition at 10 μg/ml [%] (bovine tubulin; 10 μg/ml, tubulin with 30% associated proteins (MAPs), repeat values): 98.2% and 83.0% and 86.9% and 79.7%
- EC50 of polymerization inhibition of tubulin (bovine tubulin; bovine tubulin with 30% associated proteins (MAPs)): 7.15 µg/mL and 8.02 µg/mL
- EC50 [1]: > 3.16 µg/mL
- EC50 [2]: 0.053 µg/mL (≈ 0.155 µM)
- EC50 [3]: 0.076 µg/mL (≈ 0.222 µM)
